Key:
[1] = biological target: cloned 5-HT receptors; conditions: read-out: Ki values at several cloned 5-HT receptors; cited from earlier work
[2] = biological target: T1, rat SNORF33 (Rattus norvegicus, UniProt Q923Y9); experiment: cAMP response in stable rat SNORF33/HEK293 cells; assay type: cell-based; conditions: data not shown
T1 construct: expressed in transfected cells
Experimental: The receptor-mediated stimulation or inhibition of cyclic AMP (cAMP) formation may be assayed in cells expressing the mammalian receptors. Cells are plated in 96-well plates or other vessels and preincubated in a buffer such as HEPES buffered saline (NaCl (150 mM), CaCl2 (1 mM), KCl (5 mM), glucose (10 mM)) supplemented with a phosphodiesterase inhibitor such as 5 mM theophylline, with or without protease inhibitor cocktail (For example, a typical inhibitor cocktail contains 2 μg/ml aprotinin, […] leupeptin, and 10 μg/ml phosphoramidon.) for 20 min at 37° C., in 5% CO2. Test compounds are added with or without […] forskolin and incubated for an additional 10 min at 37° C. The medium is then aspirated and the reaction stopped by the addition of 100 mM HCl or other methods. The plates are stored at 4° C. for 15 min, and the cAMP content in the stopping solution is measured by radioimmunoassay. Radioactivity may be quantified using a gamma counter equipped with data reduction software. Specific modifications may be performed to optimize the assay for the receptor or to alter the detection method of cAMP.

[3] = biological target: T2, hSNORF33 (Homo sapiens, UniProt Q96RJ0); experiment: Electrophysiological response of Xenopus oocytes expressing hSNORF33 and CFTR; assay type: cell-based; design: expressed in transfected cells; host or cells: Xenopus laevis oocytes (mRNA injection, co-expressed CFTR); conditions: 100 μM tyramine; dependent on CFTR co-expression
T2 sequence (Q96RJ0 1-339): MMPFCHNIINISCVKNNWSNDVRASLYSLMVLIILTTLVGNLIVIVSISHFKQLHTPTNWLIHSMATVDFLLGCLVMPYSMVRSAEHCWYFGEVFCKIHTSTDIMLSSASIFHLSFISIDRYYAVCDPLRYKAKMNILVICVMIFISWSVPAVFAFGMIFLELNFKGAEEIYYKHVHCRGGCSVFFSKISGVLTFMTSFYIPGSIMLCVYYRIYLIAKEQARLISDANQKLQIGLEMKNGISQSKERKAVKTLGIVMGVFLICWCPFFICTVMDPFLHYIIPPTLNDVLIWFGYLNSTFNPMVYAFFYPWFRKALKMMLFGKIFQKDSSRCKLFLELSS
Experimental: Unless otherwise specified, oocytes were voltage clamped at a holding potential of −80 mV. During recordings, oocytes were bathed in continuously flowing (1-3 ml/min) medium containing 96 mM NaCl, 2 mM KCl, 1.8 mM CaCl2, 1 mM MgCl2, and 5 mM HEPES, pH 7.5 (ND96). […] Experiments were carried out at room temperature.

T1 sequence (Q923Y9 whole entry): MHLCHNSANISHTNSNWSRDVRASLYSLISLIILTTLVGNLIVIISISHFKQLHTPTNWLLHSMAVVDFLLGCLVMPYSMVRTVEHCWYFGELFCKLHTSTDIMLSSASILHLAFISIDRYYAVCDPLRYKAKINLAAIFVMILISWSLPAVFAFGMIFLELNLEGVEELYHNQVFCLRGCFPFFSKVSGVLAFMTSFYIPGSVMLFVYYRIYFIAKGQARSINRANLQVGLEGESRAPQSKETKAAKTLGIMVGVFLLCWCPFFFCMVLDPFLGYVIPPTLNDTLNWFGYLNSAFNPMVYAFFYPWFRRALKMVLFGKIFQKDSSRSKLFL

Compound	Ki [1] [nM]	Increase in cAMP [2] [fold]	Stimulation of hSNORF33 currents [3]
NCCc1c[nH]c2ccccc12 [Tryptamine (T), Tryptamine]	1 to 100		
NCCc1ccc(O)cc1 [Tyramine (TYR), Tyramine]		~4	strongly stimulated

Source: patent US7517658B2, “Methods for preparing compositions using a SNORF33 receptor” (H. Lundbeck A/S, priority 1999, dated 2009)
